Assay results: patent publication US8741932B2, “Imidazopyridine derivatives” (Piramal Enterprises Limited, priority 2009, dated 2014)
pIC50: −log10 of the molar value.

Assays:
A549 = assay: Cytotoxicity assay (propidium iodide), A549; type: cell-based; conditions: Homo sapiens; A549 (C1a, lung); 48 hours
Experimental: (§4) Cells from cell lines as mentioned in the table given below were seeded at a density of 3000 cells/well in a white opaque 96-well plate. Following incubation at 37° C./5% CO2 for a period of 18-24 hours, the cells were treated with various concentrations (stock solution was prepared in DMSO and subsequent dilutions were made in media as per ATCC guidelines) of the representative compounds of present invention (refer table 3) for a period of 48 hours. At the end of treatment, the spent culture medium was discarded, the cells were washed with 1×PBS and 200 μl of 7 μg/ml propidium iodide was added to each well. The plates were frozen at −70° C. for at least 24 hours. For analysis, the plates were brought to RT, allowed to thaw and were read in PolarStar fluorimeter with the fluorescence setting. The percentage of viable cells in the non treated set of wells was considered to be 100 and the percentage viability following treatment was calculated accordingly. IC50 values were calculated from graphs plotted using these percentages.

H460 = assay: Cytotoxicity assay (propidium iodide), H460; type: cell-based; conditions: Homo sapiens, NCI-H460; H460 (C1b, lung); 48 hours
Experimental: as §4

A2780 = assay: Cytotoxicity assay (propidium iodide), A2780; type: cell-based; conditions: Homo sapiens; A2780 (C3a, ovarian); 48 hours
OVCAR 3 = assay: Cytotoxicity assay (propidium iodide), OVCAR 3; type: cell-based; conditions: Homo sapiens; OVCAR 3 (C3c, ovarian); 48 hours
Experimental: as §4

HCT116 = assay: Cytotoxicity assay (propidium iodide), HCT116; type: cell-based; conditions: Homo sapiens, HCT-116; HCT116 (C4b, colon); 48 hours
Experimental: as §4

PANC 1 = assay: Cytotoxicity assay (propidium iodide), PANC 1; type: cell-based; conditions: Homo sapiens; PANC 1 (C5a, pancreatic); 48 hours
Experimental: as §4

CAPAN1 = assay: Cytotoxicity assay (propidium iodide), CAPAN1; type: cell-based; conditions: Homo sapiens, CAPAN-1; CAPAN1 (C5b, pancreatic); 48 hours
Experimental: as §4

STAT3 = STAT3 bioassay (Hela Stat3-luc, luciferase); type: cell-based; conditions: Homo sapiens, Oncostatin M induction
Experimental: Cells were seeded (Hela Stat3-luc, ATCC P/N 30-2002) in a white 96 well plate (Nunc cat.no.136101) at a density of 20,000cells/well in 179 μl volume per well (DMEM from Sigma containing 10% FCS). The plate was incubated for 24 hours at 37° C./5% CO2. The cells (wells in triplicates) were then treated with 1 μl/well of 200× stock of the desired compound concentration prepared in 100% DMSO. Curcumin was used as a standard or positive control, added 10 μg/ml in triplicate. DMSO was used as medium control (1 μl/well added in triplicates). The plate was incubated at 37° C./5% CO2 for 1 hour. 20 μl/well Oncostatin M (Oncostatin M, Human, Recombinant, E. coli, Cat.No. 496260, 10 μg from Calbiochem) was added to treated wells, induction control (in triplicate) (1000 ng/ml stock prepared in serum free medium to get final concentration 100 ng/ml). The plate was then incubated for 7-8 hours at 37° C./5% CO2 for induction. A typical assay would consist of triplicate of medium control, triplicate of induction control, triplicate of positive/standard control and test compounds at desired concentration in triplicates. For termination Luciferase assay protocol was followed where the culture medium was removed from all the wells.
200 μl well of PBS was added to remove traces of medium and compound. The PBS was discarded. 40 μl/well of 1× lysis buffer was added to all the wells. The plate was incubated at RT for 20 minutes with intermittent shaking. 100 μl/well of LAB reagent was added to all the wells in dark. {LAB reagent for 1 plate=8 ml Luciferase assay buffer (LAB)+1 ml Coenzyme A (Sigma cat no. C3019) (2.1 mg/ml stock in LAB)+530 μL of ATP (Sigma cat.no.A2383) (5.85 mg/ml stock in LAB)+1 ml luciferin reagent (Promega cat no.245355) (2 mg/ml stock in LAB, protect from light)}.
The luminescence was immediately read on polar star. The values were expressed as percentage inhibition, in terms of treated values to that STAT3 (induction control). IC50 values were calculated from graphs using these percentages.

IL-6 [1] = assay: Human monocyte assay, LPS-stimulated IL-6; type: cell-based; conditions: Monocyte; human monocytes, 1 μg/ml LPS, 5 hours
Summary of the method: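 Adherent human PBMC-derived monocytes (2×10^4/well) were cultured 48 h, preincubated 30 min with compound or 0.5% DMSO, then stimulated with 1 μg/ml E. coli LPS for 5 h at 37° C. TNF-α and IL-6 in supernatants were measured by ELISA.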

TNF-α [2] = assay: Human monocyte assay, LPS-stimulated TNF-α; type: cell-based; conditions: human monocytes, 1 μg/ml LPS, 5 hours
Experimental: The assay was designed as in the reference, Physiol.
Peripheral blood mononuclear cells (hPBMC) were harvested from human blood and suspended in RPMI 1640 culture medium containing 10% FCS, 100 U/mL penicillin and […] streptomycin (assay medium). Monocytes in the hPBMCs were counted using a Coulter Counter following which the cells were resuspended at 2×10^5 monocytes/mL. A cell suspension containing 2×10^4 monocytes was aliquoted per well of a 96-well plate. Subsequently, the hPBMCs were incubated for 4-5 hours at 37° C., 5% CO2 (During the incubation, the monocytes adhered to the bottom of 96-well plastic culture plate). Following the incubation, the non-adherent lymphocytes were washed with assay medium and the adherent monocytes re-fed with assay medium. After a 48-hour incubation period (37° C., 5% CO2), monocytes were pretreated with various concentrations of representative compounds of present invention (refer to table 6 and 7) (prepared in DMSO) or vehicle (0.5% DMSO) for 30 minutes and stimulated with 1 μg/ml LPS (Escherchia coli 0111:B4, Sigma Chemical Co., St. Louis, Mo.). The incubation was continued for 5 hours at 37° C., 5% CO2. Supernatants were harvested, assayed for IL-6 and TNF-α by ELISA as described by the manufacturer (BD Biosciences, USA). Dexamethasone (10 μM) was used as standard for this assay. […] Biological results for both IL-6 and TNFα are indicated in Table 6 and Table 7 respectively.

PC3 = assay: Cytotoxicity assay (propidium iodide), PC3; conditions: Homo sapiens, PC-3, 48 h, read-out: IC50 cytotoxicity
Experimental: as §4

IL-6 [3] = assay: Synovial tissue assay, IL-6; type: cell-based; conditions: Homo sapiens; synovial tissue cells from rheumatoid arthritis patients, 16 hours
Experimental: (§1) The assay was designed as in the reference, Lancet, 2(8657), 244-7, Jul.
(§2) Stock Solution: Compounds of the present invention were dissolved in DMSO to obtain a stock solution of 20 mM.
(§3) Synovial tissue was obtained from rheumatoid arthritis patients undergoing knee replacement surgery. The tissue was minced into small pieces and digested in RPMI medium containing 100 U/ml penicillin-G, 100 μg/ml streptomycin, 50 ng/ml amphotericin B (GIBCO; USA), 1.33 mg/ml collagenase Type I (Worthington Biochemical Corporation, New Jersey), 0.5 μg/ml DNAse Type I (Sigma Aldrich; St. Louis, Mo.) and 8.33 U/ml heparin (Biological E. Limited, India) for 3 hours at 37° C., 5% CO2. The digested tissue was filtered through a membrane (mesh size 70 micron; Sigma Aldrich). Subsequently, the cells were washed 3 times and resuspended in complete medium (RPMI supplemented with 5% FBS and 5% human serum-AB+) at a concentration of 1×10^6 cells/ml. All cell washes in this assay were performed using Rosewall Park Memorial Institute (RPMI)-1640 medium (JRH; Australia). For the experiment, 100 μl of cell suspension was added to the wells of a 96-well culture plate. Following cell plating, 100 μl of the culture medium and 1 μl of various concentrations (0.01, 0.03, 0.1, 0.3, 1, 3, 10, 30 and 100 μM) of the compounds of present invention dissolved in DMSO were added to the cells. The final concentration of DMSO was adjusted to 0.5%. For experimental purposes, 1 μl of […] concentrated solution of the compounds of present invention were dissolved in 200 μl cell suspension to achieve a final concentration of 0.01, 0.03, 0.1, 0.3, 1, 3, 10, 30 and 100 μM. The vehicle (0.5% DMSO) was used as control. 10 μM dexamethasone (Sigma Aldrich) or 1 μM 7-hydroxyfluorinide (7HF) were used as standards for the experiments. The plates were incubated for 16 hours at 37° C., 5% CO2. Subsequently, the supernatants were harvested and stored at −70° C. The amounts of TNF-α, IL-6 and interleukin-8 (IL-8) in the supernatants were assayed using OptiEIA ELISA sets, (BD BioSciences Pharmingen). The protocol followed was as per manufacturers instructions. […] The cytotoxicity of test compounds in synovial cells was assessed by MTS assay. Absorbance was measured at 490 nm. Percent cytotoxicity was calculated by the equation: % Cytotoxicity=(A−B)/A×100 where, A is the absorbance of cells treated with DMSO alone and B is the absorbance of cells treated with the test article.

TNF-α [4] = assay: Synovial tissue assay, TNF-α; type: cell-based; conditions: Homo sapiens; synovial tissue cells from rheumatoid arthritis patients, 16 hours
Experimental: as §1, §2, §3

IL-8 = assay: Synovial tissue assay, IL-8; type: cell-based; conditions: Homo sapiens; synovial tissue cells from rheumatoid arthritis patients, 16 hours
Experimental: as §1, §2, §3

PI3Kα kinase = molecular target: T1, PI3Kα kinase (Homo sapiens, UniProt P42336); assay: Kinase assay (PI3Kα); type: biochemical; conditions: read-out: IC50 (μM) for PI3K inhibition
T1 construct: purchased Millipore, USA
T1 sequence (P42336 whole entry): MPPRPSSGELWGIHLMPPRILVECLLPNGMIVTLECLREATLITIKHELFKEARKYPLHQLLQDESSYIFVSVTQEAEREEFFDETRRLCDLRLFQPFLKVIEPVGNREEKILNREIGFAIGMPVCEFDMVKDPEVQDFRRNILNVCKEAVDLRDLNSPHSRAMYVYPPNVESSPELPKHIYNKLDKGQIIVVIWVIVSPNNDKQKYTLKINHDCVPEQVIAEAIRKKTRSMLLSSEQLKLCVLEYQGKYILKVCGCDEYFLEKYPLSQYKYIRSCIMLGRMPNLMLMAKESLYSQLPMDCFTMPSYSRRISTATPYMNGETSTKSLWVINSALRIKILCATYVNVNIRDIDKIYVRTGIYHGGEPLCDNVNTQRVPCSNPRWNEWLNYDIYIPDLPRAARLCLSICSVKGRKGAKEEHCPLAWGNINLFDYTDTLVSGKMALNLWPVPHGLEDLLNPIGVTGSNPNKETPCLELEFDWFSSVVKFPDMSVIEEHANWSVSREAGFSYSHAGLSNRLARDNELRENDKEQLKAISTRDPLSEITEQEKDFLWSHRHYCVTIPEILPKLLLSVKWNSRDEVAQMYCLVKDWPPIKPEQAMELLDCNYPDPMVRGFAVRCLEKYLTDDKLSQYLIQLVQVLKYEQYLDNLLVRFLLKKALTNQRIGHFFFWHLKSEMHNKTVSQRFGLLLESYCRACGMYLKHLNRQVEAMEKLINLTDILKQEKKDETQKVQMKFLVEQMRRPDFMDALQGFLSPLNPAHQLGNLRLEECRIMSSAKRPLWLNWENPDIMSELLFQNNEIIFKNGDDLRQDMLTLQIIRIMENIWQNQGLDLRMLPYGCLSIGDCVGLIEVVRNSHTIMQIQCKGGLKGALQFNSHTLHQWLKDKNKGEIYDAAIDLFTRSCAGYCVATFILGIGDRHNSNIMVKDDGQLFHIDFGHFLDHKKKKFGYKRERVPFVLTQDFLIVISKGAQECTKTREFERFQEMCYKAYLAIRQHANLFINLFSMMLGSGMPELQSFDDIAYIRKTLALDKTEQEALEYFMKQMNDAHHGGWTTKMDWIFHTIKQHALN
T1 sequence (P27986 whole entry partner): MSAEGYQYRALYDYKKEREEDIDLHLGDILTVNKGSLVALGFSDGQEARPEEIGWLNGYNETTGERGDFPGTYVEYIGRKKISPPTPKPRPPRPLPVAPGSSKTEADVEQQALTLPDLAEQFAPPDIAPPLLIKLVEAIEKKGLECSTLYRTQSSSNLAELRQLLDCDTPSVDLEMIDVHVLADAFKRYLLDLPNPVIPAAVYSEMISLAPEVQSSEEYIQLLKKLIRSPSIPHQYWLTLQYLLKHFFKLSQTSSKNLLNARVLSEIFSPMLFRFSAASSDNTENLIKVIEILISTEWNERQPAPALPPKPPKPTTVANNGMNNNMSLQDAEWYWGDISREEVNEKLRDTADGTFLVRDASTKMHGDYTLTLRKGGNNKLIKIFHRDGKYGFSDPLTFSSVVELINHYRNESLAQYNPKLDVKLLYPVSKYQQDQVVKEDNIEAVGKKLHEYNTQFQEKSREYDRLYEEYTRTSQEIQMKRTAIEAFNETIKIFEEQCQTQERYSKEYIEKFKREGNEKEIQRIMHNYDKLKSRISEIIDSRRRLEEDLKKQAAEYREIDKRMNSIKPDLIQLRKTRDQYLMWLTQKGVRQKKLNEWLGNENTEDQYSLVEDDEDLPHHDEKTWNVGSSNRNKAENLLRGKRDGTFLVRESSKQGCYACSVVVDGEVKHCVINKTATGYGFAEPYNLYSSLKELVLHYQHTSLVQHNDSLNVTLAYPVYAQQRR
Experimental: The kinase reaction was carried out in a 25 μL volume in a 1.5 mL microcentrifuge tube. The reaction mixture consisted of kinase buffer (10 mM Hepes, pH 7.5, 50 mM MgCl2), 20 ng PI3Kα kinase (Millipore, USA), 12.5 μg phosphotidylinositol (PI), 10 μM ATP and 1 μCi ^32γ P […]. […] The reactions were incubated at 30° C. for 20 minutes and were terminated by adding 1:1 mixture of MeOH and CHCl3. The tube contents were mixed on a vortex mixer and centrifuged at 10000 rpm for 2 minutes. 10 μL of the organic (lower) phase was spotted on to a TLC plate (silica, mobile phase: n-propanol and 2 M glacial acetic acid in 65:35 ratio). The plates were dried and exposed to an X-ray film. The bands appearing as a result of ^32γ P incorporation in PI were quantitated using the Quantityl)ne (BioRad, USA) densitometry program. PI-103 (Calbiochem, USA) was used as a standard.

MDA MB 468 = assay: Cytotoxicity assay (propidium iodide), MDA MB 468; type: cell-based; conditions: Homo sapiens; MDA MB 468 (C6b, breast); 48 hours
Experimental: as §4

MCF7 = assay: Cytotoxicity assay (propidium iodide), MCF7; type: cell-based; conditions: Homo sapiens; MCF7 (C6c, breast); 48 hours
Experimental: as §4

G361 = assay: Cytotoxicity assay (propidium iodide), G361; type: cell-based; conditions: G-361; G361 (C9a, human melanoma); 48 hours
Experimental: as §4

pIC50 (STAT3) | IC50 (IL-6 [1]) | pIC50 (TNF-α [2]) | IC50 (IL-6 [3]) | IC50 (TNF-α [4]) | IC50 (IL-8) | IC50 (PI3Kα kinase) | Structure (SMILES) | pIC50 (A549) | pIC50 (H460) | pIC50 (A2780) | pIC50 (OVCAR 3) | pIC50 (HCT116) | pIC50 (PANC 1) | pIC50 (CAPAN1) | pIC50 (PC3) | pIC50 (MDA MB 468) | pIC50 (MCF7) | pIC50 (G361)
5.30 to 7.00 | 0.001 to 5 µM | 6.00 to 9.00 | 0.01 to 0.3 µM | 0.01 to 0.3 µM | 0.3 to 3 µM |  | CN(N=Cc1cnc2ccc(-c3cccnc3)cn12)S(=O)(=O)c1ccccc1F [Example 4, 2-Fluoro-N-methyl-N′-((6-(pyridine-3-yl)imidazo[1,2-a]pyridine-3-yl)methylene)benzenesulfonohydrazide] |  |  |  |  |  |  |  |  |  |  | 
5.00 to 5.30 | 0.001 to 5 µM | 6.00 to 9.00 | 0.01 to 0.3 µM | 0.01 to 0.3 µM | 0.3 to 3 µM |  | CN(N=Cc1cnc2ccc(-c3cccnc3)cn12)S(=O)(=O)c1ccc(F)cc1F [Example 13, 2,4-Difluoro-N-methyl-N′-((6-(pyridine-3-yl)imidazo[1,2-a]pyridine-3-yl)methylene) benzenesulfonohydrazide] |  |  |  |  |  |  |  |  |  |  | 
 | 0.001 to 5 µM | 6.00 to 9.00 | 0.3 to 3 µM | 0.3 to 3 µM | 0.3 to 3 µM |  | Cc1ccc(F)c(S(=O)(=O)N(C)N=Cc2cnc3ccc(-c4cccnc4)cn23)c1 [Example 19, 2-Fluoro-N, 5-dimethyl-N′-((6-(pyridine-3-yl)imidazo[1,2-a]pyridine-3-yl)methylene) benzenesulfonohydrazide] |  |  |  |  |  |  |  |  |  |  | 

Continued, compound first:

Structure (SMILES) | pIC50 (STAT3) | IC50 (IL-6 [1]) | pIC50 (TNF-α [2]) | IC50 (IL-6 [3]) | IC50 (TNF-α [4]) | IC50 (IL-8) | IC50 (PI3Kα kinase) | pIC50 (A549) | pIC50 (H460) | pIC50 (A2780) | pIC50 (OVCAR 3) | pIC50 (HCT116) | pIC50 (PANC 1) | pIC50 (CAPAN1) | pIC50 (PC3) | pIC50 (MDA MB 468) | pIC50 (MCF7) | pIC50 (G361)
CN(N=Cc1cnc2ccc(-c3cccnc3)cn12)S(=O)(=O)c1ccccc1 [Example 1, N-methyl-N′-((6-(pyridin-3-yl)imidazo[1,2-a]pyridin-3-yl)methylene)benzenesulfonohydrazide] | 5.00 to 5.30 | 0.001 to 5 µM | 6.00 to 9.00 |  |  |  |  | 5.30 to 8.00 | 5.30 to 8.00 | 5.30 to 8.00 | 5.30 to 8.00 | 5.30 to 8.00 | 5.30 to 8.00 | 5.30 to 8.00 | 5.30 to 8.00 |  |  | 
CN(/N=C/c1cnc2ccc(-c3cccnc3)cn12)S(=O)(=O)c1cccc(C#N)c1 [Example 10, (E)-3-cyano-N-methyl-N′-((6-(pyridin-3-yl)imidazo[1,2-a]pyridin-3-yl)methylene)benzenesulfonohydrazide] | 5.30 to 7.00 | 0.001 to 5 µM | 6.00 to 9.00 |  |  |  |  | 5.30 to 8.00 | 5.30 to 8.00 | 5.30 to 8.00 | 5.30 to 8.00 | 5.30 to 8.00 |  |  | 5.30 to 8.00 |  |  | 
CN(N=Cc1cnc2ccc(-c3cccnc3)cn12)S(=O)(=O)c1c(F)cccc1F [Example 14, 2,6-Difluoro-N-methyl-N′-((6-(pyridine-3-yl)imidazo[1,2-a]pyridine-3-yl)methylene) benzenesulfonohydrazide] | 5.00 to 5.30 | 0.001 to 5 µM | 6.00 to 9.00 | 0.01 to 0.3 µM | 0.01 to 0.3 µM | 0.3 to 3 µM | 0.01 to 0.5 µM |  |  |  |  |  |  |  |  |  |  | 
CN(N=Cc1cnc2ccc(-c3cccnc3)cn12)S(=O)(=O)c1cccc2cccnc12 [Example 30, N-methyl-N′-((6-(pyridine-3-yl)imidazo[1,2-a]pyridine-3-yl)methylene) quinoline-8-sulfonohydrazide] |  | ≥ 5 µM |  |  |  |  |  | < 5.30 | < 5.30 |  |  |  |  |  | < 5.30 | < 5.30 | < 5.30 | < 5.30
Cc1ccc([N+](=O)[O-])cc1S(=O)(=O)N(C)N=Cc1cnc2ccc(-c3cnc4ccccc4c3)cn12 [Example 99, N, 2-Dimethyl-5-nitro-N′-((6-(quinolin-3-yl)imidazo[1,2-a]pyridine-3-yl)methylene)benzenesulfonohydrazide] |  | 0.001 to 5 µM |  |  |  |  |  | 5.30 to 8.00 | 5.30 to 8.00 | 5.30 to 8.00 | 5.30 to 8.00 | 5.30 to 8.00 |  |  | 5.30 to 8.00 |  |  | 
